Here are results for 31 compounds from patent publication US10851115B2, “Heterocyclic compounds as RSV inhibitors” (Enanta Pharmaceuticals, Inc., priority 2017, dated 2020).

Where only a bound is given, the exact number is not on record here.

One assay deals with Human RSV-A (“Long” strain). Nature of the assay: RSV in vitro cytoprotection assay in HEp-2 cells (ATPlite readout). The format is cell-based. To be noted: human respiratory syncytial virus, 96 h; HEp-2 cells, 4-day incubation, ATPlite; read-out: Human RSV-A (“Long” strain) EC50. In short, it runs like this:
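HEp-2 cells (8,000/well) given 2-fold compound dilutions in duplicate, then infected with RSV-A Long stock; 4-day incubation. Cell viability read by ATPlite luminescence (ATP), with parallel uninfected plate for cytotoxicity; EC50 from protection against CPE.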
On the technique in general: ATP-based viability assays read luminescence as a measure of living cells.
Turning to `Cc1cnc(N2CC3(CCOCC3)C2)c(C(=O)Nc2ccc(C(=O)N3CCc4cc(C(=O)Nc5ccncc5C)sc4-c4ncccc43)cc2)c1` [Example 34], the half-maximal effective concentration (EC50) (in general, the concentration giving half of the maximal effect) is under 0.01 µM.

In the case of `Cc1cnc(N2CC3(CCOCC3)C2)c(C(=O)Nc2ccc(C(=O)N3CCc4cc(C(=O)Nc5c(F)cccc5F)sc4-c4ncc(C)cc43)cc2)c1` [Example 133], the concentration giving a half-maximal response (EC50) is under 0.01 µM.

As for `Cc1cnc(N2CC3(CCOCC3)C2)c(C(=O)Nc2ccc(C(=O)N3CCc4cc(C(=O)Nc5c(F)cccc5C(F)(F)F)sc4-c4nc(C)ccc43)cc2)c1` [Example 143], the EC50 was over 0.05 µM.

With `O=C(Nc1ccc(C(=O)N2CCc3cc(-c4nc5ccccc5[nH]4)sc3-c3ncccc32)cc1)c1cccnc1N1CC2(CCOCC2)C1` [Example 6], the EC50 is over 0.05 µM.

On to `Cc1ccc2c(n1)-c1sc(C(=O)Nc3c(F)cccc3F)cc1CCN2C(=O)c1ccc(NC(=O)c2ccc(C)nc2N2CC3(CCOCC3)C2)cc1` [Example 144], for which the EC50 lay within 0.01 to 0.05 µM.

As to `O=C(Nc1c(F)cccc1F)c1cc2c(s1)-c1ncccc1N(C(=O)c1ccc(NC(=O)c3cccnc3N3CC4(CCOCC4)C3)cc1)CC2` [Example 4], the EC50 is under 0.01 µM.

As to `Cc1ccc(C(=O)Nc2ccc(C(=O)N3CCc4cc(C(=O)Nc5c(F)cccc5Cl)sc4-c4ncccc43)cc2)c(N2CC3(CCOCC3)C2)n1` [Example 44], the EC50 is under 0.01 µM.

In the case of `Cc1ccc(C(=O)Nc2ccc(C(=O)N3CCc4cc(-c5nc6cccc(F)c6[nH]5)sc4-c4ncccc43)cc2)c(N2CC3(CCOCC3)C2)n1` [Example 46], the EC50 is under 0.01 µM.

In the case of `O=C(Nc1c(F)cccc1C(F)(F)F)c1cc2c(s1)-c1ncc(F)cc1N(C(=O)c1ccc(NC(=O)c3cccnc3N3CC4(CCOCC4)C3)cc1)CC2` [Example 62], the EC50 was under 0.01 µM.

For the compound `Cc1cnc(N2CC3(CCOCC3)C2)c(C(=O)Nc2ccc(C(=O)N3CCc4cc(C(=O)Nc5c(F)cccc5Cl)oc4-c4ccncc43)cc2)c1` [Example 125], the EC50 lay within 0.01 to 0.05 µM.

With `O=C(Nc1c(F)cc(F)cc1Cl)c1cc2c(s1)-c1cnccc1N(C(=O)c1ccc(NC(=O)c3cccnc3N3CC4(CCOCC4)C3)cc1)CC2` [Example 52], the EC50 lay in the range of 0.01 to 0.05 µM.

Consider `Cc1cnc(N2CCC3(CC2)COC3)c(C(=O)Nc2ccc(C(=O)N3CCc4cc(C(=O)Nc5c(Cl)cccc5Cl)sc4-c4ncccc43)cc2)c1` [Example 91], for which the EC50 was under 0.01 µM.

On to `Cc1ccc(C(=O)Nc2ccc(C(=O)N3CCc4c(sc(C(=O)Nc5c(C)cccc5F)c4F)-c4ncccc43)cc2)c(N2CC3(CCOCC3)C2)n1` [Example 83], for which the 50% effective concentration (EC50) is under 0.01 µM.

Take `Cc1cnc(N2CC3(CCOCC3)C2)c(C(=O)Nc2ccc(C(=O)N3CCc4cc(NC(=O)c5c(F)cccc5Cl)sc4-c4ncccc43)cc2)c1` [Example 153]: the concentration for a half-maximal effect (EC50) was under 0.01 µM.

With `Cc1ccc(C(=O)Nc2ccc(C(=O)N3CCc4cc(C(=O)Nc5c(F)cc(F)cc5F)sc4-c4ncccc43)cc2)c(N2CC3(CCOCC3)C2)n1` [Example 40], the EC50 is under 0.01 µM.

As to `Cc1cnc(N2CC3(CCOCC3)C2)c(C(=O)Nc2ccc(C(=O)N3CCc4cc(C(=O)Nc5c(C)cccc5F)oc4-c4ccncc43)cc2)c1` [Example 123], the 50% effective concentration (EC50) was over 0.05 µM.

In the case of `Cc1cnc(N2CC3(CCOCC3)C2)c(C(=O)Nc2ccc(C(=O)N3CCc4cc(C(=O)Nc5c(Cl)cccc5Cl)sc4-c4ncc(F)cc43)cc2)c1` [Example 66], the EC50 is under 0.01 µM.

`Cc1cnc(N2CC3(CCOCC3)C2)c(C(=O)Nc2ccc(C(=O)N3CCc4c(sc(C(=O)Nc5ccccc5)c4F)-c4ncccc43)cc2)c1` [Example 74]: the EC50 was under 0.01 µM.

As to `Cc1ccc(C(=O)Nc2ccc(C(=O)N3CCc4cc(C(=O)Nc5c(F)cccc5F)sc4-c4ncccc43)cc2)c(N2CC3(CCOCC3)C2)n1` [Example 39], the EC50 is under 0.01 µM.

Consider `Cc1cnc(N2CC3(CCOCC3)C2)c(C(=O)Nc2ccc(C(=O)N3CCc4cc(C(=O)Nc5c(F)cccc5Cl)sc4-c4nc(C)ccc43)cc2)c1` [Example 142], for which the EC50 lay within 0.01 to 0.05 µM.

For `Cc1cnc(N2CC3(CCOCC3)C2)c(C(=O)Nc2ccc(C(=O)N3CCc4cc(C(=O)Nc5c(F)cc(F)cc5F)sc4-c4ncccc43)cc2)c1` [Example 10], the EC50 is under 0.01 µM.

In the case of `Cc1ccc(C(=O)Nc2ccc(C(=O)N3CCc4c(sc(C(=O)Nc5c(F)cccc5F)c4F)-c4ncccc43)cc2)c(N2CC3(CCOCC3)C2)n1` [Example 81], the EC50 is under 0.01 µM.

For the compound `Cc1ccc(C(=O)Nc2ccc(C(=O)N3CCc4c(sc(C(=O)Nc5ncccc5F)c4F)-c4ncccc43)cc2)c(N2CC3(CCOCC3)C2)n1` [Example 84], the EC50 is under 0.01 µM.

Consider `O=C(Nc1c(F)cccc1C(F)(F)F)c1cc2c(o1)-c1ncc(F)cc1N(C(=O)c1ccc(NC(=O)c3cc4c(nc3N3CC5(CCOCC5)C3)CCC4)cc1)CC2` [Example 107], for which the half-maximal effective concentration (EC50) was under 0.01 µM.

Consider `Cc1cnc(N2CC3(CCOCC3)C2)c(C(=O)Nc2ccc(C(=O)N3CCc4cc(C(=O)Nc5ncccc5F)sc4-c4nc(C)ccc43)cc2)c1` [Example 140], for which the EC50 fell in the range of 0.01 to 0.05 µM.

In the case of `Cc1ccc(C(=O)Nc2ccc(C(=O)N3CCc4c(sc(-c5nc6ccc(F)cc6[nH]5)c4F)-c4ncccc43)cc2)c(N2CC3(CCOCC3)C2)n1` [Example 88], the EC50 is under 0.01 µM.

As to `Cc1cnc(N2CC3(CCOCC3)C2)c(C(=O)Nc2ccc(C(=O)N3CCc4cc(C(=O)Nc5c(F)cc(F)cc5F)oc4-c4ccncc43)cc2)c1` [Example 122], the EC50 is over 0.05 µM.

As for `Cc1cnc(N2CCC3(CC2)COC3)c(C(=O)Nc2ccc(C(=O)N3CCc4cc(C(=O)Nc5ccccc5)sc4-c4ncccc43)cc2)c1` [Example 90], the EC50 is 0.01 to 0.05 µM.

Consider `Cc1cnc(N2CC3(CCOCC3)C2)c(C(=O)Nc2ccc(C(=O)N3CCc4cc(C(=O)Nc5c(C)cccc5F)sc4-c4nc(C)ccc43)cc2)c1` [Example 139], for which the EC50 was 0.01 to 0.05 µM.

Take `Cc1cnc(N2CC3(CCOCC3)C2)c(C(=O)Nc2ccc(C(=O)N3CCc4cc(C(=O)NC5CCOCC5)sc4-c4ncccc43)cc2)c1` [Example 27]: the EC50 was under 0.01 µM.

Staying with this assay, now noted: human respiratory syncytial virus, HEp-2.
Regarding `O=C(Nc1ccccc1F)N[C@H]1N=C(c2ccccc2)c2ccccc2NC1=O` [RSV-604, reference compound], the EC50 was about 2.4 µM.
